Tested on: Pseudomonas aeruginosa PAM1001
Assay: microbe, parasite or virus in culture
Format: cell-based
In short: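 Checkerboard broth microdilution (NCCLS) with the efflux pump inhibitor and levofloxacin, each diluted along one axis of the plate, in Mueller Hinton Broth. Inoculum 5×10^5 CFU/ml from early-log culture; incubation 20 h at 35° C. Growth read at 650 nm and visually.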

[1] = Table 1, EPI Conc. μg/ml (number not given; column between 10 and 40 μg/ml)
[2] = Table 2, EPI Conc. μg/ml (number not given; column between 10 and 40 μg/ml)
[3] = Table 3, EPI Conc. μg/ml (number not given; column between 10 and 40 μg/ml)
[4] = Table 4, EPI Conc. μg/ml (number not given; column between 10 and 40 μg/ml)

Substance	Levofloxacin MIC Against P. aeruginosa PAM1001 in Presence of Efflux Pump Inhibitor (EPI), Minimum Inhibitory Concentration (Table 1, EPI Conc. 0 μg/ml) [µg/mL]	Levofloxacin MIC Against P. aeruginosa PAM1001 in Presence of Efflux Pump Inhibitor (EPI), Minimum Inhibitory Concentration (Table 1, EPI Conc. 0.625 μg/ml) [µg/mL]	Levofloxacin MIC Against P. aeruginosa PAM1001 in Presence of Efflux Pump Inhibitor (EPI), Minimum Inhibitory Concentration (Table 1, EPI Conc. 5 μg/ml) [µg/mL]	Levofloxacin MIC Against P. aeruginosa PAM1001 in Presence of Efflux Pump Inhibitor (EPI), Minimum Inhibitory Concentration (Table 1, EPI Conc. 10 μg/ml) [µg/mL]	Levofloxacin MIC Against P. aeruginosa PAM1001 in Presence of Efflux Pump Inhibitor (EPI), Minimum Inhibitory Concentration (Table 1, EPI Conc. 40 μg/ml) [µg/mL]	Levofloxacin MIC Against P. aeruginosa PAM1001 in Presence of Efflux Pump Inhibitor (EPI), Minimum Inhibitory Concentration (Table 1, EPI Conc. […]) [µg/mL]	Levofloxacin MIC Against P. aeruginosa PAM1001 in Presence of Efflux Pump Inhibitor (EPI), Minimum Inhibitory Concentration [1] [µg/mL]	Levofloxacin MIC Against P. aeruginosa PAM1001 in Presence of Efflux Pump Inhibitor (EPI), Minimum Inhibitory Concentration (Table 2, EPI Conc. 0 μg/ml) [µg/mL]	Levofloxacin MIC Against P. aeruginosa PAM1001 in Presence of Efflux Pump Inhibitor (EPI), Minimum Inhibitory Concentration (Table 2, EPI Conc. 0.625 μg/ml) [µg/mL]	Levofloxacin MIC Against P. aeruginosa PAM1001 in Presence of Efflux Pump Inhibitor (EPI), Minimum Inhibitory Concentration (Table 2, EPI Conc. 5 μg/ml) [µg/mL]	Levofloxacin MIC Against P. aeruginosa PAM1001 in Presence of Efflux Pump Inhibitor (EPI), Minimum Inhibitory Concentration (Table 2, EPI Conc. 10 μg/ml) [µg/mL]	Levofloxacin MIC Against P. aeruginosa PAM1001 in Presence of Efflux Pump Inhibitor (EPI), Minimum Inhibitory Concentration (Table 2, EPI Conc. 40 μg/ml) [µg/mL]	Levofloxacin MIC Against P. aeruginosa PAM1001 in Presence of Efflux Pump Inhibitor (EPI), Minimum Inhibitory Concentration (Table 2, EPI Conc. […]) [µg/mL]	Levofloxacin MIC Against P. aeruginosa PAM1001 in Presence of Efflux Pump Inhibitor (EPI), Minimum Inhibitory Concentration [2] [µg/mL]	Levofloxacin MIC Against P. aeruginosa PAM1001 in Presence of Efflux Pump Inhibitor (EPI), Minimum Inhibitory Concentration (Table 3, EPI Conc. 0 μg/ml) [µg/mL]	Levofloxacin MIC Against P. aeruginosa PAM1001 in Presence of Efflux Pump Inhibitor (EPI), Minimum Inhibitory Concentration (Table 3, EPI Conc. 0.625 μg/ml) [µg/mL]	Levofloxacin MIC Against P. aeruginosa PAM1001 in Presence of Efflux Pump Inhibitor (EPI), Minimum Inhibitory Concentration (Table 3, EPI Conc. 5 μg/ml) [µg/mL]	Levofloxacin MIC Against P. aeruginosa PAM1001 in Presence of Efflux Pump Inhibitor (EPI), Minimum Inhibitory Concentration (Table 3, EPI Conc. 10 μg/ml) [µg/mL]	Levofloxacin MIC Against P. aeruginosa PAM1001 in Presence of Efflux Pump Inhibitor (EPI), Minimum Inhibitory Concentration (Table 3, EPI Conc. 40 μg/ml) [µg/mL]	Levofloxacin MIC Against P. aeruginosa PAM1001 in Presence of Efflux Pump Inhibitor (EPI), Minimum Inhibitory Concentration [3] [µg/mL]	other results
D-Ornithyl-β-(N-phenylpropyl)alanine 2-naphthylamide [Compound 20 (Table 3)]	4	4	4	2	0.25	4	1	4	4	2	1	0.03	4	0.50	4	4	2	0.50	0.015	0.03	Levofloxacin MIC Against P. aeruginosa PAM1001 in Presence of Efflux Pump Inhibitor (EPI), Minimum Inhibitory Concentration (Table 3, EPI Conc. […]): 4 µg/mL; Levofloxacin MIC Against P. aeruginosa PAM1001 in Presence of Efflux Pump Inhibitor (EPI), Minimum Inhibitory Concentration (Table 4, EPI Conc. 0 μg/ml): 4 µg/mL; Levofloxacin MIC Against P. aeruginosa PAM1001 in Presence of Efflux Pump Inhibitor (EPI), Minimum Inhibitory Concentration (Table 4, EPI Conc. 0.625 μg/ml): 4 µg/mL; Levofloxacin MIC Against P. aeruginosa PAM1001 in Presence of Efflux Pump Inhibitor (EPI), Minimum Inhibitory Concentration (Table 4, EPI Conc. 5 μg/ml): 2 µg/mL; Levofloxacin MIC Against P. aeruginosa PAM1001 in Presence of Efflux Pump Inhibitor (EPI), Minimum Inhibitory Concentration (Table 4, EPI Conc. 10 μg/ml): 2 µg/mL; Levofloxacin MIC Against P. aeruginosa PAM1001 in Presence of Efflux Pump Inhibitor (EPI), Minimum Inhibitory Concentration (Table 4, EPI Conc. 40 μg/ml): 1 µg/mL; Levofloxacin MIC Against P. aeruginosa PAM1001 in Presence of Efflux Pump Inhibitor (EPI), Minimum Inhibitory Concentration (Table 4, EPI Conc. […]): 4 µg/mL; Levofloxacin MIC Against P. aeruginosa PAM1001 in Presence of Efflux Pump Inhibitor (EPI), Minimum Inhibitory Concentration [4]: 2 µg/mL
D-Ornithyl-β-(N-phenylpropyl)alanine quinoline-3-amide [Compound 22 (Table 3)]	4	4	2	1	0.06	4	0.50	4	4	2	1	0.06	4	0.125	4	4	1	0.50	0.015	0.25	Levofloxacin MIC Against P. aeruginosa PAM1001 in Presence of Efflux Pump Inhibitor (EPI), Minimum Inhibitory Concentration (Table 4, EPI Conc. 0 μg/ml): 4 µg/mL; Levofloxacin MIC Against P. aeruginosa PAM1001 in Presence of Efflux Pump Inhibitor (EPI), Minimum Inhibitory Concentration (Table 4, EPI Conc. 0.625 μg/ml): 4 µg/mL; Levofloxacin MIC Against P. aeruginosa PAM1001 in Presence of Efflux Pump Inhibitor (EPI), Minimum Inhibitory Concentration (Table 4, EPI Conc. 5 μg/ml): 1 µg/mL; Levofloxacin MIC Against P. aeruginosa PAM1001 in Presence of Efflux Pump Inhibitor (EPI), Minimum Inhibitory Concentration (Table 4, EPI Conc. 10 μg/ml): 0.125 µg/mL; Levofloxacin MIC Against P. aeruginosa PAM1001 in Presence of Efflux Pump Inhibitor (EPI), Minimum Inhibitory Concentration (Table 4, EPI Conc. 40 μg/ml): 0.125 µg/mL; Levofloxacin MIC Against P. aeruginosa PAM1001 in Presence of Efflux Pump Inhibitor (EPI), Minimum Inhibitory Concentration [4]: 0.125 µg/mL
D-Ornithyl-β-N-(Cyclopropylmethyl)alanine Quinoline-2-amide Trifluoroacetate [Example 28]	4	4	2	1	0.125	4	0.06	4	4	1	0.50	0.125	4	0.25	4	4	0.015	0.008	0.015	0.015	Levofloxacin MIC Against P. aeruginosa PAM1001 in Presence of Efflux Pump Inhibitor (EPI), Minimum Inhibitory Concentration (Table 4, EPI Conc. 0 μg/ml): 4 µg/mL; Levofloxacin MIC Against P. aeruginosa PAM1001 in Presence of Efflux Pump Inhibitor (EPI), Minimum Inhibitory Concentration (Table 4, EPI Conc. 0.625 μg/ml): 4 µg/mL; Levofloxacin MIC Against P. aeruginosa PAM1001 in Presence of Efflux Pump Inhibitor (EPI), Minimum Inhibitory Concentration (Table 4, EPI Conc. 5 μg/ml): 2 µg/mL; Levofloxacin MIC Against P. aeruginosa PAM1001 in Presence of Efflux Pump Inhibitor (EPI), Minimum Inhibitory Concentration (Table 4, EPI Conc. 10 μg/ml): 0.25 µg/mL; Levofloxacin MIC Against P. aeruginosa PAM1001 in Presence of Efflux Pump Inhibitor (EPI), Minimum Inhibitory Concentration (Table 4, EPI Conc. 40 μg/ml): 0.125 µg/mL; Levofloxacin MIC Against P. aeruginosa PAM1001 in Presence of Efflux Pump Inhibitor (EPI), Minimum Inhibitory Concentration [4]: 0.125 µg/mL

Reference: patent publication US6114310A, “Efflux pump inhibitors” (priority 1998, dated 2000)
